# Source: the NIST ThermoML archive (doi:10.1021/je060353z)
# ± gives the expanded uncertainty stated by the source.
# Columns and labels:
# [1] = 101 kPa, Liquid
# [2] = xn = mol fraction of the nth substance listed; conditions: 101 kPa, Liquid, x2 = 0
SMILES,mass density ([1]; 298.15 K) [kg/m3],speed of sound ([1]; 298.15 K) [m/s],viscosity ([1]; 298.15 K) [mPa·s],mass density ([1]; 303.15 K) [kg/m3],speed of sound ([1]; 303.15 K) [m/s],viscosity ([1]; 303.15 K) [mPa·s],mass density ([1]; 308.15 K) [kg/m3],speed of sound ([1]; 308.15 K) [m/s],viscosity ([1]; 308.15 K) [mPa·s],mass density ([1]; 313.15 K) [kg/m3],speed of sound ([1]; 313.15 K) [m/s],viscosity ([1]; 313.15 K) [mPa·s],further results
CCCCCCCCCCO [decan-1-ol],826.762 ± 0.43,1380 ± 1.5,11.83 ± 0.1,822.853 ± 0.43,1365 ± 1.5,9.754 ± 0.087,819.427 ± 0.44,1346.1 ± 1.4,8.135 ± 0.074,815.983 ± 0.45,1329.3 ± 1.4,6.842 ± 0.063,–
CCCCCCCCCCO [decan-1-ol] + Clc1ccccc1,–,–,–,–,–,–,–,–,–,–,–,–,mass density ([2]; 298.15 K): 826.762 ± 0.43 kg/m3; speed of sound ([2]; 298.15 K): 1380 ± 1.5 m/s; viscosity ([2]; 298.15 K): 11.83 ± 0.1 mPa·s; mass density ([2]; 303.15 K): 822.853 ± 0.43 kg/m3; speed of sound ([2]; 303.15 K): 1365 ± 1.5 m/s; viscosity ([2]; 303.15 K): 9.754 ± 0.087 mPa·s; mass density ([2]; 308.15 K): 819.427 ± 0.44 kg/m3; speed of sound ([2]; 308.15 K): 1346.1 ± 1.4 m/s; viscosity ([2]; 308.15 K): 8.135 ± 0.074 mPa·s; mass density ([2]; 313.15 K): 815.983 ± 0.45 kg/m3; speed of sound ([2]; 313.15 K): 1329.3 ± 1.4 m/s; viscosity ([2]; 313.15 K): 6.842 ± 0.063 mPa·s
CCCCCCCO [heptan-1-ol],818.732 ± 0.44,1327.3 ± 1.4,5.944 ± 0.056,815.287 ± 0.45,1313.6 ± 1.4,5.069 ± 0.049,811.737 ± 0.45,1293.9 ± 1.4,4.333 ± 0.043,808.162 ± 0.46,1277.2 ± 1.4,3.726 ± 0.038,–
